Assay results reported in article PMC3251615, “Effects of NK-4 in a Transgenic Mouse Model of Alzheimer's Disease” (PLoS ONE, 2012).

Target: T1, Beta-amyloid (Aβ) peptide Aβ1–40 (Homo sapiens, UniProt P05067)
T1 construct: gene APP; Aβ1–40 (Aβ1–42 and Aβ25–35 also measured)
Assay: Thioflavin T fibril formation assay on the isolated peptide, […] hr at […] °C; electron microscopy (Aβ[…] and Aβ[…])
Format: biochemical

T1 sequence (P05067 672-711 limits assumed): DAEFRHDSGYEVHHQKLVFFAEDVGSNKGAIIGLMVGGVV

CCN1C=CC(=CC=C(C=Cc2cc[n+](CC)c3ccccc23)c2cc[n+](CC)c3ccccc23)c2ccccc21 [NK-4, 4,4′-[3-{2-(1-ethyl-4(1H)-quinolylidene)ethylidene}propenylene] bis(1-ethylquinolinium iodide)]
IC50: ~10 µM
